{"source": "patent US11806313B2", "about": "“Abiraterone acetate containing composition and application thereof” (Hunan Huize Biopharma S & T Co., Ltd, priority 2021, dated 2023)", "key": {"[1]": {"details": "cited from earlier work"}, "[2]": {"type": "physicochemical", "excerpt": "Therefore, the self-microemulsion system of the present invention can choose the mixture of glycerol monolinoleate (CC) and medium chain triglyceride (MCT) as the oil phase. […] Accordingly, when glycerol monolinoleate and medium chain triglyceride are used in combination as the oil phase, in order to ensure a larger drug loading capacity, the amount of CC in the oil phase should be as much as possible, while the amount of MCT should be as little as possible.\nWhen PEG-40 hydrogenated castor oil (RH40) and 2-(2-ethoxyethoxy)ethanol (HP) are used in combination as the emulsion phase, in order to ensure the emulsification effect of the self-microemulsion system and to ensure a large drug loading capacity, one should increase the amount of RH40 in the emulsion phase while also reduce the amount of HP as much as possible."}, "[3]": {"details": "cited from earlier work", "remark": "listed apart in the source"}, "[4]": {"details": "high-fat diet (57% fat, 825 calories)"}, "[5]": {"details": "low-fat diet (7% fat, 300 calories)"}}, "data": [{"smiles": "CC(=O)O[C@H]1CC[C@@]2(C)C(=CC[C@@H]3[C@@H]2CC[C@]2(C)C(c4cccnc4)=CC[C@@H]32)C1", "note": "[abiraterone acetate, (3β)-17-(3-pyridyl)androsta-5,16-dien-3-yl acetate]", "values": [{"measurement": "increase of AUC0-∞ with food", "setting": "[1]; [4]", "result": "~10", "unit": "times"}, {"measurement": "increase of Cmax with food", "setting": "[1]; [4]", "result": "about 17 times"}, {"measurement": "increase of AUC0-∞ of abiraterone with food", "setting": "[1]; [5]", "result": "~5", "unit": "times"}, {"measurement": "increase of Cmax of abiraterone with food", "setting": "[1]; [5]", "result": "about 7 times"}, {"measurement": "solubility in 2-(2-ethoxyethoxy)ethanol (HP)", "setting": "[2]", "result": "about 69.0 mg/g"}, {"measurement": "solubility in PEG-40 hydrogenated castor oil (RH40)", "setting": "[2]", "result": "about 24.7 mg/g"}, {"measurement": "solubility in glycerol monolinoleate (CC)", "setting": "[2]", "result": "about 62.9 mg/g"}, {"measurement": "solubility in medium chain triglyceride (MCT)", "setting": "[2]", "result": "about 28.4 mg/g"}, {"measurement": "solubility in water", "setting": "[3]", "result": "less than 0.01 mg/ml"}]}]}
